The values that follow come from US6362212B1, “Oxime derivative and bactericide containing the same as active ingredient” (Shionogi & Company, Ltd., priority 1994, dated 2002).

The subject of one data set is Pyricularia oryzae. Type of data set: in vivo. The note with it: foliage spray on rice seedlings (cv. […]), number of lesions six days after the inoculation.
Another data set relates to Sphaerotheca fuliginea. Description: Controlling effect on Sphaerotheca fuliginea by foliage application (pot experiment). Type of data set: in vivo. The note with it: foliage spray on cucumber (cv. TSUKUBASHIROIBO) first leaves, infected area after 10 days in greenhouse at 20° C.; for pest or weed control at 500 ppm: Podosphaera fuliginea, in Cucumis sativus, foliar, 240 h, read-out: Controlling effect on Sphaerotheca fuliginea by foliage application at 500 ppm (percent control). An outline of the steps: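 First leaves of cucumber seedlings, 2-3 weeks old, were sprayed with compound (DMF solution diluted in water with spreader). They were inoculated 24 h later with a Sphaerotheca fuliginea conidia spray and kept 10 days at 20° C in a greenhouse. Percent control was calculated from infected leaf area.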

The test system of data set [1] is Erysiphe graminis f. sp. tritici. Description: Controlling effect on Erysiphe graminis f. sp. tritici by foliage application (pot experiment). Type of data set: in vivo. The settings on record: foliage spray on wheat (cv. NORIN No. 61) seedlings, infected area after 10 days in greenhouse at 20° C.; for pest or weed control at 500 ppm: Blumeria graminis, foliar, 240 h, read-out: Controlling effect on ErYsiphe graminis f. sp. tritici by foliage application at 500 ppm (percent control). The method in brief: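 Wheat seedlings (cv. NORIN No. 61, 2-3 weeks old) sprayed with compound in DMF diluted in water with spreader, then inoculated with conidia 24 hours later. Kept in greenhouse at 20 °C for 10 days; percent control calculated from infected leaf area.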

For a further data set, the system named is Puccinia coronata. Description: Controlling effect on Puccinia coronata by foliage application (pot experiment). Type of data set: in vivo. The settings on record: foliage spray on oat (cv. PC-38) seedlings, infected area after 1 day moist chamber and 8 days greenhouse at 20° C. The method in brief: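 Oat seedlings (cv. PC-38, 2–3 weeks old) were sprayed with compound in DMF diluted with spreader-containing water, then inoculated 24 h later with P. coronata spores diluted in talc. Plants were held 1 day in a moist chamber at 20° C, then 8 days in a greenhouse at 20° C; percent control came from infected leaf area.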

The next data set concerns Botrytis cinerea. Description: Controlling effect on Botrytis cinerea by foliage application (pot experiment). Type of data set: in vivo. The note with it: foliage spray on cucumber (cv. TSUKUBASHIROIBO) first leaves, mycelial disks, lesion diameter after 3 days in moist chamber at 20° C. The protocol:
The following Test Examples illustrate the effects of the fungicide of the present invention. (I. Controlling effects on various plant diseases by foliage application (pot experiment)) A test compound was dissolved in a small amount of N,N-dimethylformamide, and the solution was diluted to a given concentration with distilled water containing a spreader. Thus, a liquid sample to be tested was prepared. The liquid sample was sprayed to test plants, and 24 hours thereafter, pathogens were inoculated by the method described below. […] The seeds of cucumber ([…]) were sown in plastic cups (each 9 cm in diameter), followed by cultivation for 2 to 3 weeks. The test compound in the form of a solution or suspension was sprayed to the surface of their first leaves, and mycelial disks (4 mm φ) of Botrytis cinerea cultured on the potato sucrose agar medium were put on the leaf surfaces to inoculate. the cucumber seedlings with the pathogen. The plants were kept in a moist chamber at 20° C. for 3 days. The diameter of the lesions on the leaves was measured and the percent control was calculated.

In data set [2] the test system is Pseudoperonospora cubensis. In words: Controlling effect on Pseudoperonospora cubensis by foliage application (pot experiment). Type of data set: in vivo. The note with it: foliage spray on cucumber (var. TSUKUBASHIROIBO) first leaves, lesion area after 10 days in moist chamber at 20° C. An outline of the steps: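 Cucumber plants grown 2–3 weeks were sprayed on first leaves with compound (DMF solution diluted in water with spreader); 24 h later, Pseudoperonospora cubensis zoosporangia suspension dropped on leaves. Plants held in moist chamber at 20° C for 10 days; lesion area observed and percent control calculated.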

In turn, `CON=C(c1ccon1)c1ccccc1COc1cc(C)ccc1C` (single isomer, unassigned) [Compound No. 336, 2-(2,5-dimethylphenoxymethyl)phenyl isoxazol-3-yl ketone O-methyloxime] displayed a melting point of 104 to 108 °C. In addition, the “Controlling effect on PYricularia orYzae by foliage application at 500 ppm (percent control)” value in the data set with Pyricularia oryzae came out at 90 percent control. Further, the pest or weed control at 500 ppm in the data set on Sphaerotheca fuliginea came out at 100%. In addition, in data set [1], the pest or weed control at 500 ppm turned out to be 97%. In addition, the “Controllng effect on Puccinia coronata by foliage application at 500 ppm (percent control)” value (from here on “Controllng effect … (percent control)”) with Puccinia coronata stood at 100 percent control.
`CON=C(c1ccccc1COc1cccc(Cl)c1)n1ccnc1` [Compound No. 6, 1-[2-(3-chlorophenoxymethyl)-α-methoxyiminobenzyl]imidazole]: the melting point was 96.5 to 97.5 °C. In addition, the “Controlling effect on PYricularia orYzae by foliage application at 500 ppm (percent control)” value in the data set on Pyricularia oryzae is on record as 90 percent control. Besides, the “Controlling effect on Botrytis cinerea by foliage application at 500 ppm (percent control)” value in the data set with Botrytis cinerea is listed as 100 percent control. In addition, in data set [1], the pest or weed control at 500 ppm stood at 100%. The “Controllng effect … (percent control)” value in the data set with Puccinia coronata stood at 100 percent control.
`CON=C(c1cc(C)no1)c1ccccc1COc1ncc(C(F)(F)F)cc1Cl` [Compound No. 690, 2-(3-chloro-5-trifluoromethyl-2-pyridyloxymethyl)phenyl 3-methylisoxazol-5-yl ketone O-methyloxime]: the melting point is 77 to 79 °C.
Turning to `CON=C(c1nnco1)c1ccccc1COc1cc(C)ccc1C` [Compound No. 736, 2-(2,5-dimethylphenoxymethyl)phenyl 1,3,4-oxadiazol-2-yl ketone O-methyloxime], the melting point lay within 134 to 135 °C. In the data set with Sphaerotheca fuliginea, the pest or weed control at 500 ppm was 100%. Moreover, the pest or weed control at 500 ppm in data set [1] is 100%. Also, the “Controllng effect … (percent control)” value with Puccinia coronata amounted to 100 percent control.
Take `CON=C(c1ncon1)c1ccccc1COc1ccc(Cl)cc1` [Compound No. 807, 2-(4-chlorophenoxymethyl)phenyl 1,2,4-oxadiazol-3-yl ketone O-methyloxime]: the melting point was 107 to 108 °C. Besides, the pest or weed control at 500 ppm in the data set on Sphaerotheca fuliginea stood at 100%.
Take `CON=C(c1ncno1)c1ccccc1COc1ccc(Cl)cc1` [Compound No. 1584, 2-(4-chlorophenoxymethyl)phenyl 1,2,4-oxadiazol-5-yl ketone O-methyloxime]: the melting point fell in the range of 96 to 97.5 °C. Further, the “Controlling effect on PYricularia orYzae by foliage application at 500 ppm (percent control)” value in the data set with Pyricularia oryzae stood at 70 percent control. Also, the pest or weed control at 500 ppm in the data set with Sphaerotheca fuliginea worked out at 100%. Besides, the pest or weed control at 500 ppm in data set [1] was found to be 100%. The “Controllng effect … (percent control)” value in the data set on Puccinia coronata is on record as 70 percent control.
`CON=C(c1nnn(C)n1)c1ccccc1COc1cc(C)ccc1C` [Compound No. 2036, 2-(2,5-dimethylphenoxymethyl)phenyl 2-methyl-2H-tetrazol-5-yl ketone O-methyloxime] registered a melting point of 131 to 132 °C. In addition, in the data set with Sphaerotheca fuliginea, the pest or weed control at 500 ppm worked out at 100%. Moreover, the pest or weed control at 500 ppm in data set [1] came to 90%.
Regarding `CCON=C(c1ccccc1COc1ccccc1)n1cncc1C` [compound 215], the “Controlling effect on PYricularia orYzae by foliage application at 500 ppm (percent control)” value in the data set with Pyricularia oryzae is on record as 70 percent control. Further, in the data set with Sphaerotheca fuliginea, the “Controlling effect on Sphaerotheca fuliginea by foliage application at 500 ppm (percent control)” value is listed as 100 percent control. In the data set on Botrytis cinerea, the “Controlling effect on Botrytis cinerea by foliage application at 500 ppm (percent control)” value was determined as 97 percent control. Also, the “Controlling effect on ErYsiphe graminis f. sp. tritici by foliage application at 500 ppm (percent control)” value in data set [1] is on record as 90 percent control. Besides, the “Controllng effect … (percent control)” value in the data set on Puccinia coronata worked out at 90 percent control.
In turn, `CON=C(c1cc(C)no1)c1ccccc1CON=C(C)c1ccc(Cl)c(Cl)c1` [compound 2528, 2-(3,4-dichloro-α-methylbenzylideneaminooxymethyl)phenyl 3-methylisoxazol-5-yl ketone O-methyloxime] came in with a melting point of 84 to 85 °C. The pest or weed control at 500 ppm in the data set with Sphaerotheca fuliginea amounted to 100%. In data set [2], the “Controlling effect on Pseudoperonospora cubensis by foliage application at 500 ppm (percent control)” value is 100 percent control.
